Data reported in the NIST ThermoML archive (doi:10.1016/j.tca.2014.05.028).

Experiment: xn = mol fraction of the nth substance listed
Conditions: 101 kPa, Liquid; for mass density: Vibrating tube method; for viscosity: Falling or rolling sphere viscometry

CCCC[N+]1(C)CCCC1.[Br-] [1-butyl-1-methylpyrrolidinium bromide] + O
Conditions	mass density, 333.15 K [kg/m3]	mass density, 338.15 K [kg/m3]	mass density, 343.15 K [kg/m3]	viscosity, 338.15 K [mPa·s]	viscosity, 343.15 K [mPa·s]
x1 = 0.0265	1031.32	1028.4	1024.59	0.649	0.586
x1 = 0.0561	1071.61	1068.07	1065.42	0.997	0.887
x1 = 0.0871	1102.07	1098.46	1094.8	1.536	1.366
x1 = 0.1283	1130.94	1127.23	1123.48	2.525	2.229
x1 = 0.1645	1149.27	1145.56	1141.82	3.462	3.005
x1 = 0.2074	1165.34	1161.68	1158	4.89	4.186
x1 = 0.2525	1178.06	1174.49	1170.9	6.876	5.839
x1 = 0.28	1184.04	1180.52	1176.99	8.118	6.858
x1 = 0.3012	1188.13	1184.65	1181.16	9.372	7.882
x1 = 0.3254	1192.25	1188.82	1185.37	10.94	9.135
x1 = 1	1194.28	1190.53	1186.8	–	–
